Laboratory results published in the NIST ThermoML archive (doi:10.1016/j.jct.2006.09.010).
± gives the expanded uncertainty stated by the source.

Conditions: Liquid

## FC(F)C(F)(F)F [pentafluoroethane]
313.15 K
  vapor or sublimation pressure: 2008 ± 38 kPa
323.15 K
  vapor or sublimation pressure: 2535 ± 48 kPa
333.15 K
  vapor or sublimation pressure: 3171 ± 59 kPa
